Literature values in patent publication US20070122442A1, “Triple-Action Pest Control Formulation and Method” (priority 2004, published 2007).

Tested on: insects
Details: variety of insects

## OB(O)O [boric acid]
  retention at which boric acid is known to be effective: below 0.5%
